Assay results reported in patent EP0506748B1, “AMINO ACIDS, PEPTIDES OR DERIVATIVES THEREOF COUPLED TO FATS” (COMMONWEALTH SCIENTIFIC AND INDUSTRIAL RESEARCH ORGANISATION, priority 1989, dated 1991).

Columns and labels:
[1] = test system: RD10 cells; assay: 3H-thymidine incorporation (mitogenic effect) in RD10 cells; assay type: cell-based; conditions: RD10 B-cell lymphoma
Description: (§1) ^3H-thymidine incorporation experiments were carried out in Linbro-Titertek microtitre plates (Flow Laboratories, Inc., U.S.A.) following the method of L. Bradley in "Selected Methods of Cellular Immunology (1980) Eds. B.B. Mishell and S.M. Shiigi; Publisher. W.H. Freeman and Co., U.S.A. pp156. The tests were carried out externally by Dr. D. Rathjen of Peptide Technology Ltd. Dee Why, N.S.W.
(§2) Cell lines tested were:- • 1. RD10; a B-cell lymphoma (obtained from the Centre for Immunology, Sydney University, Sydney, NSW. • 2. U937; a human monocyte-like3 histiocytic lymphoma (source: American Tissue Culture Collection).
(§3) RD10 cells (at a cell density 5x10^s/ml, 100 ul/well) were cultured for 20 hours at 37°C with 5% C02 in RPMI 1640 medium, supplemented with 10% Fetal Calf. Serum. Samples to be tested were mixed and sonicated with this medium at a concentration of 5000, 500, 50 and 5 ug/ml and 100 ul aliquots added to the cells. The cells were pulsed with 0.5 uCi/well of ^3H-thymidine and the plates incubated for four more hours before harvesting (Titertek Skatron harvester, Lier, Norway). Incorporated radioactivity was measured by liquid scintillation counting. All assays were performed in triplicate.

[2] = test system: U937 cells; assay: 3H-thymidine incorporation (mitogenic effect) in U937 cells; assay type: cell-based, human; conditions: for Thymidine incorporation of the U937 cells: U937 human monocyte-like histiocytic lymphoma, result in words, relative to control or to Z-Ala-TRIS-Tripalmitate
Description: as §1, §2, §3

[3] = target: T1, trypsin (Bos taurus, UniProt P00760); assay: Protease treatment: digestion with trypsin, followed by HPLC; assay type: biochemical; conditions: TPCK trypsin, enzyme/substrate ratio 1:50, 0.2 M ammonium hydrogen carbonate, 37°C; product Z-Leu-Arg-OH
T1 sequence (P00760 24-246): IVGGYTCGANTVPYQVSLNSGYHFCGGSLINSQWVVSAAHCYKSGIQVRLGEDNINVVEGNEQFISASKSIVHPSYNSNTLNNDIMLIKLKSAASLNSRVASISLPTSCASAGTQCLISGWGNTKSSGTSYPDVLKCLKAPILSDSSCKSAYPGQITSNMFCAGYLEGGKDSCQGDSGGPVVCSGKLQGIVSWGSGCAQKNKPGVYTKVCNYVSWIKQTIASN
Description: Z-Gly-TRIS and Z-Ala-TRIS were incubated with papain, and Z-Leu-Arg-TRIS with trypsin, to test that the action of proteolytic enzymes could regenerate the starting compounds Z-Gly-OH, Z-Ala-OH and Z-Leu-Arg-OH respectively.
• a) Papain. Z-Ala-TRIS in 50 mmolar phosphate buffer pH 6.5 (650 ul) , 20 mM ethylene-diamine-tetraacetic acid (100 ul) and water to 1 ml. Activated papain (5mg/ml) was added to a final enzyme/substrate ratio of 1:50. The reaction was followed by HPLC on C18 reverse phase columns and the hydrolysis product identified by co-chromatography with standards. Blanks were incubated as above using water instead of enzyme solution. • b) Trypsin. Z-Leu-Arg-TRIS was incubated at a concentration between 2 and 10 mg/ml in 0.2 M ammonium hydrogen carbonate. Freshly prepared TPCK trypsin (1 mg/ml in water) was added to the solution giving a final enzyme/substrate ratio of 1:50. Samples were incubated at 37°C and aliquots examined by reverse phase HPLC. Additional amounts of enzyme were added as required.

| hydrolysis with trypsin [3] | SMILES | ^3H-thymidine uptake by RD10 cells, response compared with Z-Ala-TRIS-Tripalmitate ([1]; result in words) | Thymidine incorporation of the U937 cells [2] | ^3H-thymidine uptake by RD10 cells, increase in cell proliferation compared to control ([1]; samples at 5000, 500, 50 and 5 ug/ml, 20 hours culture, 4 hours pulse, triplicate) [fold] | cytotoxic effects in U937 cells ([2]; at higher concentrations, from thymidine incorporation) |
| --- | --- | --- | --- | --- | --- |
| – | CCCCCCCCCCCCCCCC(=O)OCC(COC(=O)CCCCCCCCCCCCCCC)(COC(=O)CCCCCCCCCCCCCCC)NC(=O)C(C)N (stereo not drawn) [Ala-TRIS-Tripalmitate, Ala-TRIS-TRIPALMITATE] | slightly diminished response | slightly diminished responses | – | – |
| – | CCCCCCCCCCCCCCCC(=O)OCC(COC(=O)CCCCCCCCCCCCCCC)(COC(=O)CCCCCCCCCCCCCCC)NC(=O)C(C)NC(=O)OCc1ccccc1 (stereo not drawn) [Z-Ala-TRIS-Tripalmitate, Z-Ala-TRIS-TRIPALMITATE] | – | close to control | 3.4 | slight cytotoxic effects |
| slowly | CC(C)C[C@H](NC(=O)OCc1ccccc1)C(=O)N[C@@H](CCCNC(=N)N)C(=O)NC(CO)(CO)CO [Z-Leu-Arg-TRIS] | – | – | – | – |
